Key:
[1] = molecular target: T1, Prostaglandin G/H synthase 1 (Rattus norvegicus, UniProt Q63921); type: functional
T1 sequence (Q63921 whole entry): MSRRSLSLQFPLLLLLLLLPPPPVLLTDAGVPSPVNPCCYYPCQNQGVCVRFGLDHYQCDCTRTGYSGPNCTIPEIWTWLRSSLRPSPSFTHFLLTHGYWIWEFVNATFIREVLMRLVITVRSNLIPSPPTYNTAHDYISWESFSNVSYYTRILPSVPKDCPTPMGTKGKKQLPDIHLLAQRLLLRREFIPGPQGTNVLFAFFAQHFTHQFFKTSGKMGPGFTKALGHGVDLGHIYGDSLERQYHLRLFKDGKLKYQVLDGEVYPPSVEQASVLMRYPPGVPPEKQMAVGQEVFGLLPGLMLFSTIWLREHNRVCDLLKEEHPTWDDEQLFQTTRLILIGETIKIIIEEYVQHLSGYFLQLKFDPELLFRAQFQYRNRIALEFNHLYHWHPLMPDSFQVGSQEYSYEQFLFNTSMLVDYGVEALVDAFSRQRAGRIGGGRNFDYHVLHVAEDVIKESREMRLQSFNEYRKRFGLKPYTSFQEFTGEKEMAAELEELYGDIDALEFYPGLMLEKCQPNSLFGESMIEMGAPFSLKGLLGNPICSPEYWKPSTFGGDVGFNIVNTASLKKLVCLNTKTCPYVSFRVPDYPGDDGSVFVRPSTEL

[2] = molecular target: cGMP-inhibited 3',5'-cyclic phosphodiesterase 3A (Homo sapiens, UniProt Q14432); type: functional
[3] = molecular target: T2, Adenosine receptor A1 (Homo sapiens, UniProt P30542)
T2 sequence (P30542 whole entry): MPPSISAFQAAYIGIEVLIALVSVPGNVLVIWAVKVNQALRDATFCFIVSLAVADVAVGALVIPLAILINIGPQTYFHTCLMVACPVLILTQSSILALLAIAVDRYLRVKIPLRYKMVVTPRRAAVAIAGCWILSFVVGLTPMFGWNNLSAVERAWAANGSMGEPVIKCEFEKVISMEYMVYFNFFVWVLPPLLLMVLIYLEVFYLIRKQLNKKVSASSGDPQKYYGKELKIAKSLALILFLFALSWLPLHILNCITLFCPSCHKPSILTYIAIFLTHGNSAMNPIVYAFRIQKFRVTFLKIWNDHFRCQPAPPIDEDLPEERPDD

[4] = molecular target: Beta-2 adrenergic receptor (Homo sapiens, UniProt P07550)
[5] = molecular target: T3, B2 bradykinin receptor (Homo sapiens, UniProt P30411)
T3 sequence (P30411 whole entry): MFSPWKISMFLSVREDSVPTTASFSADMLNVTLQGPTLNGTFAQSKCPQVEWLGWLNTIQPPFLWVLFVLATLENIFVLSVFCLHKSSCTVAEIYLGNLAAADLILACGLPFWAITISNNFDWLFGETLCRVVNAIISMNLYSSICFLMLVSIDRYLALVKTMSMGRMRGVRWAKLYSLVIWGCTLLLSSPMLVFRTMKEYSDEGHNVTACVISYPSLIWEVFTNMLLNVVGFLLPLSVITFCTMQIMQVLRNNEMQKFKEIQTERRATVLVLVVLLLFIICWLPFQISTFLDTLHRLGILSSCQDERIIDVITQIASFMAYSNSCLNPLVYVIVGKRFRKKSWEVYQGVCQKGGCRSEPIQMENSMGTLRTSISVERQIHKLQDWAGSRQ

[6] = molecular target: T4, Gastrin/cholecystokinin type B receptor (Homo sapiens, UniProt P32239)
T4 sequence (P32239 whole entry): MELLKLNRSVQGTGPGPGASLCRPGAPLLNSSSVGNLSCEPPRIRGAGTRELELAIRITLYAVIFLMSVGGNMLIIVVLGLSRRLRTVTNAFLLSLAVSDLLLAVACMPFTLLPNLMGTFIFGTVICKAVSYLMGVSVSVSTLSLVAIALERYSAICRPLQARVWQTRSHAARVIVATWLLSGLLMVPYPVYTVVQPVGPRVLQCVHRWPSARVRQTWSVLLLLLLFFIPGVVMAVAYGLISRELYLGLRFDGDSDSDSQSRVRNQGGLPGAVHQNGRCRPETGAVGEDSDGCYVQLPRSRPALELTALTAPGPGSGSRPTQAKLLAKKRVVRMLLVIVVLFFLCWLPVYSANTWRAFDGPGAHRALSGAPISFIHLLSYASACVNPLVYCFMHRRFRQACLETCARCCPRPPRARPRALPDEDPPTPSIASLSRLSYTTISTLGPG

[7] = molecular target: Glutamate receptor ionotropic, NMDA 1 (Rattus norvegicus, UniProt P35439)
[8] = molecular target: T5, Thromboxane A2 receptor (Homo sapiens, UniProt P21731)
T5 sequence (P21731 whole entry): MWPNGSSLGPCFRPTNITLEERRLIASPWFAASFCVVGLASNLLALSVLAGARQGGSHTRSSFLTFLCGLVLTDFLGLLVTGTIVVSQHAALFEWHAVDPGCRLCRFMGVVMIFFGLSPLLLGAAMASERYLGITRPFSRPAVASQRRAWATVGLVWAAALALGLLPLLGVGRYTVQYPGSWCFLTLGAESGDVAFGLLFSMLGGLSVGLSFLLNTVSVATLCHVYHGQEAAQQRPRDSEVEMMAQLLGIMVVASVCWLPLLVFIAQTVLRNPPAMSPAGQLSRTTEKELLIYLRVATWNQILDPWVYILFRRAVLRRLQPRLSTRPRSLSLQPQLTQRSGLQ
Also: assay procedure not described here.

cGMP-inhibited 3',5'-cyclic phosphodiesterase 3A, sequence (Q14432 whole entry): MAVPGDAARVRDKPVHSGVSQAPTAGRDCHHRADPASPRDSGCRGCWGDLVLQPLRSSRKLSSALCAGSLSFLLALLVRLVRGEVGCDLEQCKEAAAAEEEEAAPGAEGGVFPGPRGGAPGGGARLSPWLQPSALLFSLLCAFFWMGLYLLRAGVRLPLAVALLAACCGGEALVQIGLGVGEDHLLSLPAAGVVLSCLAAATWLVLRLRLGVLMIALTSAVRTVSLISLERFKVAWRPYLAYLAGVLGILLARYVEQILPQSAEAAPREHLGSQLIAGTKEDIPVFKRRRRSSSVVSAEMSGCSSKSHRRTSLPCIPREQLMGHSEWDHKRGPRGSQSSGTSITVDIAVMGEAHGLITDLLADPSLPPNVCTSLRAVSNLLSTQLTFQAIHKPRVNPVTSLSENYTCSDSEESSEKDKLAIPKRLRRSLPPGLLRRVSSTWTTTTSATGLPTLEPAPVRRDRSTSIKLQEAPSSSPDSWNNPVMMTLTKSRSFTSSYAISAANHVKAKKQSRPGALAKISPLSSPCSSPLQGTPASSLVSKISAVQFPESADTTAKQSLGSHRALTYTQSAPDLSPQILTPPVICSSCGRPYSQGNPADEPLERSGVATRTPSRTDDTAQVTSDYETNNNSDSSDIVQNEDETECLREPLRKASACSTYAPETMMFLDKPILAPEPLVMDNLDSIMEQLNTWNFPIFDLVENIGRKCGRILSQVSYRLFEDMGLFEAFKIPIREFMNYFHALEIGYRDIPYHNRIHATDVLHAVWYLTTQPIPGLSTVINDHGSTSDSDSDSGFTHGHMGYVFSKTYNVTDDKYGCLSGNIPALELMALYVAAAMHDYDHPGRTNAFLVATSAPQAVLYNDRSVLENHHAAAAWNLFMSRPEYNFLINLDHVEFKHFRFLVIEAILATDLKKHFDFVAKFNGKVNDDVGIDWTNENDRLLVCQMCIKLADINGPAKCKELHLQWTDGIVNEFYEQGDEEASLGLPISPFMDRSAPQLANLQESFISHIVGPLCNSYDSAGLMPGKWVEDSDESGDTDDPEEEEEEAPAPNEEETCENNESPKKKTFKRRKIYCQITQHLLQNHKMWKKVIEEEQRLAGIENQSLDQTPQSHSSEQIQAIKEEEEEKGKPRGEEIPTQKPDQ
Beta-2 adrenergic receptor, sequence (P07550 whole entry): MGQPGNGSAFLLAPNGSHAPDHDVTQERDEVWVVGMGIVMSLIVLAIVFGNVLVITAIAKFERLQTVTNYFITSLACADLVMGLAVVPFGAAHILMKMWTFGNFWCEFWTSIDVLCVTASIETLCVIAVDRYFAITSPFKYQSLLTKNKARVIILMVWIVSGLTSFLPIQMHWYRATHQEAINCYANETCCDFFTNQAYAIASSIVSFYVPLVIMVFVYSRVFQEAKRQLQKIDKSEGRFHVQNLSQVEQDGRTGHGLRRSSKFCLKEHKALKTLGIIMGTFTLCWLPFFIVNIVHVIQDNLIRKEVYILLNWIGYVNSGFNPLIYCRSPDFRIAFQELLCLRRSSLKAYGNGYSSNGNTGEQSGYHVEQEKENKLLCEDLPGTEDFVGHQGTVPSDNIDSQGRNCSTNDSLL

SMILES | AC50 [1] [µM] | AC50 [2] [µM] | AC50 [3] [µM] | AC50 [4] [µM] | AC50 [5] [µM] | AC50 [6] [µM] | AC50 [7] [µM] | AC50 [8] [µM]
Cc1cc(C2CCCCC2)n(O)c(=O)c1 [CICLOPIROX] | > 3 | > 30 | – | – | – | – | – | –
CC[C@@H](CO)NC(=O)[C@@H]1C=C2c3cccc4c3c(cn4C)C[C@H]2N(C)C1 [METHYSERGIDE] | > 30 | > 30 | > 30 | > 10 | > 30 | > 30 | > 10 | 24.5
CC(C)[C@H](N)C(=O)OCCOCn1cnc2c(=O)[nH]c(N)nc21 [VALACYCLOVIR] | > 30 | > 30 | > 30 | > 10 | > 30 | > 30 | > 10 | > 30
O=C(O)Cc1ccccc1Nc1c(Cl)cccc1Cl [DICLOFENAC] | – | > 30 | > 30 | > 10 | > 30 | > 30 | > 10 | > 30
CC(C)(O/N=C(\C(=O)N[C@@H]1C(=O)N2C(C(=O)[O-])=C(C[n+]3ccccc3)CS[C@H]12)c1csc(N)n1)C(=O)O [CEFTAZIDIME] | > 300 | > 300 | > 300 | – | > 30 | > 30 | > 30 | –
CN(CCOc1ccc(CC2SC(=O)NC2=O)cc1)c1ccccn1 (centres undefined) [ROSIGLITAZONE] | > 30 | > 30 | > 30 | > 30 | > 30 | > 30 | > 30 | > 30
CC(C(=O)O)c1ccc2oc(-c3ccc(Cl)cc3)nc2c1 (centres undefined) [BENOXAPROFEN] | – | > 30 | > 30 | > 30 | > 30 | > 10 | > 30 | > 30
Cc1nnc(SCC2=C(C(=O)O)N3C(=O)[C@@H](NC(=O)Cn4cnnn4)[C@H]3SC2)s1 [CEFAZOLIN] | 160 | > 300 | > 300 | – | > 30 | > 30 | > 30 | –
Clc1ccc(Cn2c(CN3CCCC3)nc3ccccc32)cc1 [CLEMIZOLE] | > 30 | > 30 | > 30 | – | – | – | – | –
CNC(=C[N+](=O)[O-])NCCSCc1csc(CN(C)C)n1 [NIZATIDINE] | > 10 | > 30 | > 10 | > 10 | > 10 | – | > 10 | > 10
CCCCCCCN(CC)CCCC(O)c1ccc(NS(C)(=O)=O)cc1 (centres undefined) [IBUTILIDE] | > 30 | > 30 | > 30 | > 30 | > 30 | > 30 | > 30 | > 30
Cc1onc(-c2c(F)cccc2Cl)c1C(=O)N[C@@H]1C(=O)N2[C@@H]1SC(C)(C)[C@@H]2C(=O)O [FLOXACILLIN] | > 30 | > 30 | > 30 | – | – | – | – | –
CC(C)Cc1ccc([C@H](C)C(=O)O)cc1 [DEXIBUPROFEN] | – | > 30 | > 30 | – | – | – | – | –
S=P(N1CC1)(N1CC1)N1CC1 [THIOTEPA] | > 30 | > 30 | > 30 | – | – | – | – | –
CCC(=O)O[C@]1(C(=O)CCl)[C@@H](C)C[C@H]2[C@@H]3CCC4=CC(=O)C=C[C@]4(C)[C@@]3(F)[C@@H](O)C[C@@]21C [CLOBETASOL PROPIONATE] | > 30 | > 30 | > 30 | – | > 30 | > 30 | > 30 | –
CCOc1cc([C@@H](CS(C)(=O)=O)N2C(=O)c3cccc(NC(C)=O)c3C2=O)ccc1OC | > 30 | > 30 | > 30 | – | – | – | – | –
CC1(C)S[C@@H]2[C@H](NC(=O)C(C(=O)O)c3ccccc3)C(=O)N2[C@H]1C(=O)O (some centres undefined) [CARBENICILLIN] | > 30 | > 30 | > 30 | – | > 30 | > 30 | > 30 | –
CCCc1cc(=O)[nH]c(=S)[nH]1 [PROPYLTHIOURACIL] | 6.6 | > 30 | > 10 | > 10 | > 10 | – | > 10 | > 10
CNC[C@H](O)c1ccc(O)c(O)c1 [EPINEPHRINE] | > 30 | > 30 | > 30 | – | – | – | – | –
Cn1cc(C(=O)[C@@H]2CCc3nc[nH]c3C2)c2ccccc21 [RAMOSETRON] | > 30 | > 30 | > 30 | > 30 | > 30 | > 30 | > 30 | > 30
CCOc1nc2cccc(C(=O)O)c2n1Cc1ccc(-c2ccccc2-c2nnn[nH]2)cc1 | > 30 | 13 | > 30 | > 10 | > 30 | > 10 | – | > 10
Cc1nc(Nc2ncc(C(=O)Nc3c(C)cccc3Cl)s2)cc(N2CCN(CCO)CC2)n1 [DASATINIB] | > 30 | > 30 | > 30 | > 10 | > 30 | > 30 | > 10 | > 10
CCCNC(=O)NS(=O)(=O)c1ccc(Cl)cc1 [CHLORPROPAMIDE] | > 30 | > 30 | > 30 | > 10 | > 30 | > 30 | > 10 | > 30
COc1cc(C(=O)NS(=O)(=O)c2ccccc2C)ccc1Cc1cn(C)c2ccc(NC(=O)OC3CCCC3)cc12 [ZAFIRLUKAST] | 5.1 | 14 | > 30 | > 10 | > 10 | – | > 10 | > 10
CN1Cc2c(N)cccc2C(c2ccccc2)C1 (centres undefined) [NOMIFENSINE] | 7.5 | > 30 | > 30 | – | > 30 | > 30 | > 30 | > 30
CC=CC1=C(C(=O)O)N2C(=O)[C@@H](NC(=O)[C@H](N)c3ccc(O)cc3)[C@H]2SC1 [CEFPROZIL] | 13.7 | > 30 | > 30 | > 30 | > 30 | > 30 | > 30 | > 30
CC[C@H](C)C(=O)O[C@H]1C[C@@H](C)C=C2C=C[C@H](C)[C@H](CC[C@@H]3C[C@@H](O)CC(=O)O3)[C@H]21 [LOVASTATIN] | > 30 | > 30 | > 30 | > 10 | > 30 | > 30 | > 10 | 12

Reference: ChEMBL document CHEMBL5291721, “A preclinical secondary pharmacology resource illuminates target-adverse drug reaction associations of marketed drugs” (Nat Commun, 2023)
